Experiments:
Assay in all cases: Protein kinase selectivity panel
Conditions in all cases: 1.0 μM compound, 10 μM ATP
CaMKII(r) = format: biochemical, rat
Protocol: (§1) Protein kinase selectivity assays were performed as described in the scientific literature (Davies, S. P., et al., Biochem. J. 2000, 351, 95-105). Briefly, protein kinases were assayed for their ability to phosphorylate the appropriate peptide/protein substrates in the presence of 1.0 μM compound. Assays were done using 10 μM ATP and were linear with respect to time. The protein kinase selectivity assays were performed by Upstate Cell Signaling Solutions using Upstate's KinaseProfiler™ Selectivity Screening Service.

p70S6K(h) = format: biochemical, human
Protocol: as §1

ALK(h) = ALK(h) (Homo sapiens, UniProt Q9UM73); format: biochemical
How it was run: (§2)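 Single-point screen: compound 1.0 μM; ATP 10 μM; peptide/protein substrate matched to each kinase; reaction linear in time.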

Aurora-A(h) = target: T1, Aurora-A(h) (Homo sapiens, UniProt O14965); format: biochemical
T1 sequence (O14965 1-403): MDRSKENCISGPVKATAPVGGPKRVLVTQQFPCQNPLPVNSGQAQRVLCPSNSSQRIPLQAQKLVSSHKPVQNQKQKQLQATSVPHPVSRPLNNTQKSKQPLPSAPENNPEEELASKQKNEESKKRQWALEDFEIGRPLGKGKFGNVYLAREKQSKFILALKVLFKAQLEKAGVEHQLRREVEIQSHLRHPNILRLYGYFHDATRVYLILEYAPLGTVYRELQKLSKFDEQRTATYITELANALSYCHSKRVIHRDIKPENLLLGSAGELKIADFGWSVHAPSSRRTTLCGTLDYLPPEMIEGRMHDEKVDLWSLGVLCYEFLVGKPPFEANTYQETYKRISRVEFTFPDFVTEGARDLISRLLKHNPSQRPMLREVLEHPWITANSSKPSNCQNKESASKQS
How it was run: as §2

CHK1(h) = target: T2, CHK1(h) (Homo sapiens, UniProt O14757); format: biochemical
T2 sequence (O14757 1-476): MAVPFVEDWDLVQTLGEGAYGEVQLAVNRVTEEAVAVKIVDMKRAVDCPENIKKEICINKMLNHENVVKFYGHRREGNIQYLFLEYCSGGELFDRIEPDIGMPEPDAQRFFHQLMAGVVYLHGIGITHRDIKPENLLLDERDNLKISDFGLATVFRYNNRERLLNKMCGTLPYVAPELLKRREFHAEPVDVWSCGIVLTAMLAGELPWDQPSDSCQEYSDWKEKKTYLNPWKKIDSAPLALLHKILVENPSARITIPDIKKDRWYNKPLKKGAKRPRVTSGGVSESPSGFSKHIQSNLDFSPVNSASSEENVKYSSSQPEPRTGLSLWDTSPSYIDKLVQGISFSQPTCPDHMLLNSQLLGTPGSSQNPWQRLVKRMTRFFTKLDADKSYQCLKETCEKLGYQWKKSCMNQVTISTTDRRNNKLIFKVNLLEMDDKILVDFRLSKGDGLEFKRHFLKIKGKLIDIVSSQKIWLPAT
How it was run: as §2

Met(h) = Met(h) (Homo sapiens, UniProt P08581); format: biochemical
How it was run: as §2

PDGFRβ(h) = PDGFRβ(h) (Homo sapiens, UniProt P09619); format: biochemical
How it was run: as §2

PKCδ(h) = PKCδ(h) (Homo sapiens, UniProt Q05655); format: biochemical
How it was run: as §2

PKCη(h) = PKCη(h) (Homo sapiens, UniProt P24723); format: biochemical
How it was run: as §2

PKD2(h) = target: T3, PKD2(h) (Homo sapiens, UniProt Q9BZL6); format: biochemical
T3 sequence (Q9BZL6 1-878): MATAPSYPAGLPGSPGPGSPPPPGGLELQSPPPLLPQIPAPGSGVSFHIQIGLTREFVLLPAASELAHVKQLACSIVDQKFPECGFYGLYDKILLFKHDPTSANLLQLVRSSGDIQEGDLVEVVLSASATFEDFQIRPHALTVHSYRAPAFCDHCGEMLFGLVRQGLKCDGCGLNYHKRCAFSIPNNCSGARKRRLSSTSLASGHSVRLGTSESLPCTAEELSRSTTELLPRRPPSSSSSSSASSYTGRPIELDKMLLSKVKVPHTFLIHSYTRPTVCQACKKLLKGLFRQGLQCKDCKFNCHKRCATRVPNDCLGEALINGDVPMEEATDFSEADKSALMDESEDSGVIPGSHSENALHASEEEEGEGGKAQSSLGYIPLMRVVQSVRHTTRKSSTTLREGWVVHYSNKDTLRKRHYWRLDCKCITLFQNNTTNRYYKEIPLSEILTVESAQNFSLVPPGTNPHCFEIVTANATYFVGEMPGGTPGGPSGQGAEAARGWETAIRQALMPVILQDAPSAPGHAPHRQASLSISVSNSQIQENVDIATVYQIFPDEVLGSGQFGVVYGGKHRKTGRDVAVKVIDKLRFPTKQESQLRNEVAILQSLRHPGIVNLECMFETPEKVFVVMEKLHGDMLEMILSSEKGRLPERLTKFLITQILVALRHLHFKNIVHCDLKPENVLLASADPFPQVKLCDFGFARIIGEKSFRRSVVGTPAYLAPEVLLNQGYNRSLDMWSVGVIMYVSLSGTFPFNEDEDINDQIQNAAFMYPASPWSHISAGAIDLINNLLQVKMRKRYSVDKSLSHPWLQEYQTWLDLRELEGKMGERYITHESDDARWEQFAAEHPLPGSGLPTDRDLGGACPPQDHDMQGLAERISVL
How it was run: as §2

SAPK3(h) = target: T4, SAPK3(h) (Homo sapiens, UniProt P53778); format: biochemical
T4 sequence (P53778 1-367): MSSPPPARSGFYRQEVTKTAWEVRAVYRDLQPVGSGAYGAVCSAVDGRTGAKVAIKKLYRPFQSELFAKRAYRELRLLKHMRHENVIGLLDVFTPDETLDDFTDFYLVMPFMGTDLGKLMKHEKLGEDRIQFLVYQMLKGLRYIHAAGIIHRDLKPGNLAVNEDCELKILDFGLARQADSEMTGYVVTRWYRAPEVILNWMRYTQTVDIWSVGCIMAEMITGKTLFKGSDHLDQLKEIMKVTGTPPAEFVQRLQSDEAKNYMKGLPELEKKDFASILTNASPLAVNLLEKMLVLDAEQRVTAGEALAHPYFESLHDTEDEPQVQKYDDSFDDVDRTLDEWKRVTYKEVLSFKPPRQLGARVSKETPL
How it was run: as §2

Tie2(h) = Tie2(h) (Homo sapiens, UniProt Q02763); format: biochemical
How it was run: as §2

cSRC(h) = cSRC(h) (Homo sapiens, UniProt P12931); format: biochemical
How it was run: as §2

PKCδ(h), sequence (Q05655 whole entry): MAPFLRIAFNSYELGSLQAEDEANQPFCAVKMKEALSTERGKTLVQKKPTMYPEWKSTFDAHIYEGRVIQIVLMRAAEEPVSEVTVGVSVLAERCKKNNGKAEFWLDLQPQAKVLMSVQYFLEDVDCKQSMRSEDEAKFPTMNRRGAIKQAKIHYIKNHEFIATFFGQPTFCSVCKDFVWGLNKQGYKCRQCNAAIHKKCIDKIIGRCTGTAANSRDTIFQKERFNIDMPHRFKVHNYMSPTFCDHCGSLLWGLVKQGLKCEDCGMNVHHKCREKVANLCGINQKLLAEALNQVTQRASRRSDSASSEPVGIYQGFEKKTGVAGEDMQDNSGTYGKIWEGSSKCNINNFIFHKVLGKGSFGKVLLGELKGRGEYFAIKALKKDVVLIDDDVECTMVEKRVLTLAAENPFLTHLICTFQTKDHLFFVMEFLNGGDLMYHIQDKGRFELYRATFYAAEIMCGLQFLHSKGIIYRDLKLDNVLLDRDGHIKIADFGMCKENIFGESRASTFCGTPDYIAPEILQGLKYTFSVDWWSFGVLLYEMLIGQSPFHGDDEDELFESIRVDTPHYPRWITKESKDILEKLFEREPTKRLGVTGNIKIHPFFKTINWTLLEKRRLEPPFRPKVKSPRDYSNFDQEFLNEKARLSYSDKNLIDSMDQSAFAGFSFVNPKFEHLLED
PKCη(h), sequence (P24723 whole entry): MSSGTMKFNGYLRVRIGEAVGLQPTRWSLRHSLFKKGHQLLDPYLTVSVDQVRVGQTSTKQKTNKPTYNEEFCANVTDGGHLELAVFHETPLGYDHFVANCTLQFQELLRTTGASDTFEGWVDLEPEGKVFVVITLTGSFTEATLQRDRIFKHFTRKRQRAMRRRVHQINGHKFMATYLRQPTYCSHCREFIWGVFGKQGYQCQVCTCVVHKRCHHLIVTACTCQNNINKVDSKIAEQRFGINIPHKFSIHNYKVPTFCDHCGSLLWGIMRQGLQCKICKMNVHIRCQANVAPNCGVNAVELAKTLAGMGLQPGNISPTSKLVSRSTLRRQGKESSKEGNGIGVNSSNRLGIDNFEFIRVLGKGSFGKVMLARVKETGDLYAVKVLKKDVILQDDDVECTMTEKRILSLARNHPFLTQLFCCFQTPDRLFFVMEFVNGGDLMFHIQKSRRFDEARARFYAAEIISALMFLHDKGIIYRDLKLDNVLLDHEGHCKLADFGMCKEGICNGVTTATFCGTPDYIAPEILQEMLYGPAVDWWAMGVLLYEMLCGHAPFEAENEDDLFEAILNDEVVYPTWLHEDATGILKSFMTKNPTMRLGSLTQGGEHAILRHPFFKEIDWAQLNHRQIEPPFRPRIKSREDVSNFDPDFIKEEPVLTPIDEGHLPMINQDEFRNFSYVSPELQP
Tie2(h), sequence (Q02763 23-1124): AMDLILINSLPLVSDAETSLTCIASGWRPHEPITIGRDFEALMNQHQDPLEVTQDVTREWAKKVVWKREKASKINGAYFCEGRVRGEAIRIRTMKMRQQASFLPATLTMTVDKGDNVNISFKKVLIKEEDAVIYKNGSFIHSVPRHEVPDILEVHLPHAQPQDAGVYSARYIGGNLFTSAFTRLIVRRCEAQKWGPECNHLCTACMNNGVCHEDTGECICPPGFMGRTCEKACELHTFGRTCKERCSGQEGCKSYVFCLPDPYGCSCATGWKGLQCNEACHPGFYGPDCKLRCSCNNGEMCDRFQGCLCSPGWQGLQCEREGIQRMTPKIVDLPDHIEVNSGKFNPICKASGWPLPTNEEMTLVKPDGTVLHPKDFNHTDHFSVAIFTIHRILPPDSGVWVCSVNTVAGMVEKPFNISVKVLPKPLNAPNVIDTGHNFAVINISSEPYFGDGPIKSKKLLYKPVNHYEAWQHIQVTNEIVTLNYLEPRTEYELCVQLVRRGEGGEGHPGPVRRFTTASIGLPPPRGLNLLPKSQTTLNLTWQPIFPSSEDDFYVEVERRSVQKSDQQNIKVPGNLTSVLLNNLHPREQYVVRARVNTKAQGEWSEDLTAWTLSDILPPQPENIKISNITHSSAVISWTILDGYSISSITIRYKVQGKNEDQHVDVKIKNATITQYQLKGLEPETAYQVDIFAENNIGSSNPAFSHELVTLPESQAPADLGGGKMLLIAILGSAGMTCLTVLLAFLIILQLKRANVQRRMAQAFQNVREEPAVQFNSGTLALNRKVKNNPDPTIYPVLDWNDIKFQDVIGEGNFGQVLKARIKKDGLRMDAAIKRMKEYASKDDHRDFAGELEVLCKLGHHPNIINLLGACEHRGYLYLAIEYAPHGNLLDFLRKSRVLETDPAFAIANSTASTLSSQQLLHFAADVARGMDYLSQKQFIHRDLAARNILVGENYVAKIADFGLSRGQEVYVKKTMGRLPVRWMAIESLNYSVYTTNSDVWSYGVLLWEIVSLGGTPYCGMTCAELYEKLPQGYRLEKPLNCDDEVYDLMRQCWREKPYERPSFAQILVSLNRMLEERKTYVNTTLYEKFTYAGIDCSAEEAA
ALK(h), sequence (Q9UM73 19-1620): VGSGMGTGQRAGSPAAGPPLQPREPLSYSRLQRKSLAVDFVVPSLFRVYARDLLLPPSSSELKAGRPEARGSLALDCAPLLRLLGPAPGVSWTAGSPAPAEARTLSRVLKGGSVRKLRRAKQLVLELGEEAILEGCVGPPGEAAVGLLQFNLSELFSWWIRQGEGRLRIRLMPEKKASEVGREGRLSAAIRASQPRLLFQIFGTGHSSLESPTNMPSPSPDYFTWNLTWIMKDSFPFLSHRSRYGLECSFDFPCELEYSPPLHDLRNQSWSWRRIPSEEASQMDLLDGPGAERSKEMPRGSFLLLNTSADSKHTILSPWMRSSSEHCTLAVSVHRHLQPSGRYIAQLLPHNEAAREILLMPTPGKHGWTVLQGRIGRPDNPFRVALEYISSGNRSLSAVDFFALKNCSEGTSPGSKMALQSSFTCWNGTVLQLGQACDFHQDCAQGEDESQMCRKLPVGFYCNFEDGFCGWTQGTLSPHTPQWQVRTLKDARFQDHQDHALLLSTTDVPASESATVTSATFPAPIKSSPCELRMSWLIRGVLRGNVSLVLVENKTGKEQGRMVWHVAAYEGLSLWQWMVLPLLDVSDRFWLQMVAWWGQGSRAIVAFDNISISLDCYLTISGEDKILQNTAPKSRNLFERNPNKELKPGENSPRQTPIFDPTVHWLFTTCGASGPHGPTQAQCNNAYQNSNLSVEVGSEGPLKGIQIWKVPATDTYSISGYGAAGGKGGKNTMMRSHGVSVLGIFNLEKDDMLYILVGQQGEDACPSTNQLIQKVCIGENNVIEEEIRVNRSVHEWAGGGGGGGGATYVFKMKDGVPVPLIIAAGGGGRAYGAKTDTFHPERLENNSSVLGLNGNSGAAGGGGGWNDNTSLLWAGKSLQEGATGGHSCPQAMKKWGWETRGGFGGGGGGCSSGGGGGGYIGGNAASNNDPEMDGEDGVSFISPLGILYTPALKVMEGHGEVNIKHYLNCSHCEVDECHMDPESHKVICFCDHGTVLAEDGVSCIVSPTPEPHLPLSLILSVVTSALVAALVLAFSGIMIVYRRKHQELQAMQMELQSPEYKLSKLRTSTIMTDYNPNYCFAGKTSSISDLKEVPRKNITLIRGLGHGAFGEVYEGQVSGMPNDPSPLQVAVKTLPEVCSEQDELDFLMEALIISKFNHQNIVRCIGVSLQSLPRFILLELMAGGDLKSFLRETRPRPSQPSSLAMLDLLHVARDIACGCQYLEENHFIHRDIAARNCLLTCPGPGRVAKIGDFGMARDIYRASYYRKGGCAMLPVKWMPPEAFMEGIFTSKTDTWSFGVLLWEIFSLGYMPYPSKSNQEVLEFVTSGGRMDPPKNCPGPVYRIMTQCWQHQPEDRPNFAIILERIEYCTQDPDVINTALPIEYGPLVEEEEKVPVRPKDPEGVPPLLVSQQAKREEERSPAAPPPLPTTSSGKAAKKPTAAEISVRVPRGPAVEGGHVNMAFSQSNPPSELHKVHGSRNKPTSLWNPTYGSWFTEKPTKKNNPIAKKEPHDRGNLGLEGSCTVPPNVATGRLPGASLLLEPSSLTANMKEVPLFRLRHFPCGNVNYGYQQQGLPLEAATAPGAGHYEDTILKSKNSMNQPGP
cSRC(h), sequence (P12931 whole entry): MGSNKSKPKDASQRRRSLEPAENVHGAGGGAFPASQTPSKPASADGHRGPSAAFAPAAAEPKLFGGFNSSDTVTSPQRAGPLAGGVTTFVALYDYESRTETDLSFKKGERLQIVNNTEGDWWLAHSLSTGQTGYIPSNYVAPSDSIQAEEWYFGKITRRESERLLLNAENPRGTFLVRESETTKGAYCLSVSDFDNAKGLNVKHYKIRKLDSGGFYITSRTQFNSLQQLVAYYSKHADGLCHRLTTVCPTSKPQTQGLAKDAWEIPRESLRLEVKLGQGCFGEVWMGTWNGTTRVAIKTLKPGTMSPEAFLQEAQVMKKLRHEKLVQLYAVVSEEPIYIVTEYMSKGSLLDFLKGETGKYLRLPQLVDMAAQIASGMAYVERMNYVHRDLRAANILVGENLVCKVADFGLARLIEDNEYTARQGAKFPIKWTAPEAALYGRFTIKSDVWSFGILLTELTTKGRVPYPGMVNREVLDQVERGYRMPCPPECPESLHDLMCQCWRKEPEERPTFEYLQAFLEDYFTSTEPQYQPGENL

Activity at Protein Kinase Assays (% of control), CaMKII(r) (CaMKII(r))	Activity at Protein Kinase Assays (% of control), p70S6K(h) (p70S6K(h))	Activity at Protein Kinase Assays (% of control), ALK(h) (ALK(h))	Activity at Protein Kinase Assays (% of control), Aurora-A(h) (Aurora-A(h))	Activity at Protein Kinase Assays (% of control), CHK1(h) (CHK1(h))	Activity at Protein Kinase Assays (% of control), Met(h) (Met(h))	Activity at Protein Kinase Assays (% of control), PDGFRβ(h) (PDGFRβ(h))	Activity at Protein Kinase Assays (% of control), PKCδ(h) (PKCδ(h))	Activity at Protein Kinase Assays (% of control), PKCη(h) (PKCη(h))	Activity at Protein Kinase Assays (% of control), PKD2(h) (PKD2(h))	Activity at Protein Kinase Assays (% of control), SAPK3(h) (SAPK3(h))	Activity at Protein Kinase Assays (% of control), Tie2(h) (Tie2(h))	Activity at Protein Kinase Assays (% of control), cSRC(h) (cSRC(h))	Compound
98 % of control	84 % of control	74 % of control	106 % of control	106 % of control	132 % of control	105 % of control	91 % of control	97 % of control	115 % of control	114 % of control	107 % of control	113 % of control	O=C1NC(=O)C2=C1c1cn(c3ccccc13)CCCc1ccc(c(N3CCCC3)n1)CCCn1cc2c2ccccc21 [Cpd 7, 31-pyrrolidin-1-yl-5,15,25,30-tetraazaheptacyclo[27.2.2.1^5,12.1^18,25.0^6,11.0^13,17.0^19,24]pentatriaconta-1(31),6,8,10,12(35),13(17),18(34),19,21,23,29,32-dodecaene-14,16-dione]
92 % of control	98 % of control	103 % of control	109 % of control	105 % of control	121 % of control	147 % of control	73 % of control	85 % of control	100 % of control	78 % of control	110 % of control	81 % of control	CN(C)c1nc2ccc1CCCCn1cc(c3ccccc31)C1=C(C(=O)NC1=O)c1cn(c3ccccc13)CCC2 [Cpd 1, 31-(dimethylamino)-5,15,25,32-tetraazaheptacyclo[28.2.2.1^5,12.1^18,25.0^6,11.0^13,17.0^19,24]hexatriaconta-1(32),6,8,10,12(36),13(17),18(35),19,21,23,30,33-dodecaene-14,16-dione]
109 % of control	95 % of control	58 % of control	111 % of control	110 % of control	129 % of control	103 % of control	104 % of control	102 % of control	103 % of control	103 % of control	96 % of control	97 % of control	O=C1NC(=O)C2=C1c1cn(c3ccccc13)CCCc1cc(nc(N3CCCC3)c1)CCCn1cc2c2ccccc21 [Cpd 6, 20-pyrrolidin-1-yl-4,14,19,26-tetraazaheptacyclo[24.6.1.1^7,14.1^18,22.0^2,6.0^8,13.0^27,32]pentatriaconta-1(33),2(6),7(35),8,10,12,18(34),19,21,27,29,31-dodecaene-3,5-dione]
107 % of control	91 % of control	55 % of control	111 % of control	101 % of control	132 % of control	101 % of control	100 % of control	109 % of control	97 % of control	115 % of control	109 % of control	105 % of control	CN(C)c1cc2cc(n1)CCCn1cc(c3ccccc31)C1=C(C(=O)NC1=O)c1cn(c3ccccc13)CCC2 [Cpd 2, 20-(dimethylamino)-4,14,19,26-tetraazaheptacyclo[24.6.1.1^7,14.1^18,22.0^2,6.0^8,13.0^27,32]pentatriaconta-1(33),2(6),7(35),8,10,12,18(34),19,21,27,29,31-dodecaene-3,5-dione]

Source: US7759331B2, “Pyridine-containing macroheterococylic compounds as kinase inhibitors” (Janssen Pharmaceutica NV, priority 2006, dated 2010)
